Where only a bound is given, the exact number is not on record here.

Assay [1] concerns human norovirus GII. 6 (K2017 strain). Kind of assay: Human norovirus proliferation inhibition in 2D organoid after 2fp-fucose treatment, GII.6 strain. It counts as cell-based. To be noted: 3 days treatment before infection, days 3 and 6 after infection. As to the method:
Feces of a human norovirus-infected patent contains a large amount of infectious human norovirus. Thus, the feces of a human norovirus-infected patient is suspended in distilled water or the like to a final concentration of about 10%, to thereby prepare a “10% feces suspension.” The 10% feces suspension is about 10-fold diluted with an ENRA medium. The diluted suspension is added to each of the aforementioned wells having the 2D organoid (5 μL/well) and subjected to incubation for about 3 hours, to thereby proliferate human norovirus. As a result of verification, it has been confirmed that human norovirus proliferates to about 100,000 times the initial count through the culture system employing the 2D organoid.
In the Example, there were tested strains of human norovirus obtained from feces of human norovirus infection patients through the aforementioned procedure and stocked before the test. Specifically, three strains belonging to the genetic group 2 (GII) which accounts for 80 to 90% of the infected patients were selected as test targets. The isolated strain lineages included in GII (FIG. 1) were GII. 6 belonging to “Lineage 1,” GII. […]
The effect of 2fp-fucose treatment on proliferation of human norovirus was investigated for each lineage of norovirus. […] 4, and the viral proliferation amount was determined on days 3 and 6 after infection (FIG. 4).

The subject of assay [2] is human norovirus GII. 4 strain or GII. 6 strain. In words: Effect of treatment with 2fp-fucose or 6a-fucose after differentiation, on infection and reinfection (RNA titer by real-time RT-PCR). To be noted: fucose analog 200 μM added on day 5, infection on day (5+2), 3 days culturing. In kind it is cell-based. As to the method: (a) The 2D organoid was disseminated to a 96-well plate. After completion of differentiation induction, two fucose analogs (i.e., 2fp-fucose and 6a-fucose) were each added on day 5 to a concentration of 200 μM, to thereby provide addition groups. The results are shown in FIG. 14(a) and FIG. 14(b), respectively. A non-addition group (untreated group) was also provided. Subsequently, the medium was removed from the wells on day (5+2), and the plate was washed. Then, infection with the GII. 4 strain or the GII. 6 strain was performed.
After the infection treatment, the human norovirus remaining in the medium was removed together with the medium, and the plate was washed thrice with a new medium. After washing, the aforementioned active ingredients were each added to the new medium to a concentration of 200 μM (addition groups), and no addition was performed with respect to the untreated (i.e., non-addition) group. Culturing was performed for 3 days. A portion (10 μL) of the medium was sampled from each well, and the samples were centrifuged at 10,000 g for 10 minutes, to thereby remove cell precipitates. The amount of human norovirus genomic RNA in the supernatant (1 μL) was determined through real-time RT-PCR.
In the test system, the effect of the anti-norovirus agent of the present invention provided after human norovirus infection was estimated on the basis of the following study. Specifically, among the fucose analog-treated 2D organoid cells, the living cells on growth day 3 (i.e., most of them were not infected with human norovirus, by virtue of the effect of the fucose analog) were subjected to a secondary infection operation (i.e., reinfection). The effect of the fucose analog on the reinfection was investigated.
In a specific procedure, the addition groups were prepared through the same procedure as employed in (a) above. The primarily infected cells were cultured in the presence of the fucose analog (200 μM) for 3 days, and the medium was removed from each culture system. After completion of washing, the cells were infected again with human norovirus, and then the virus was removed together with the medium. After completion of the next washing, a medium containing the fucose analog (200 μM) (represented by Reinf+2f-fuc or Reinf+6a-fuc), or a fucose analog-free medium (represented by Reinf−2f-fuc or Reinf−6a-fuc) was added thereto, and culturing was performed for further 3 days. Similar to the above case, the amount of human norovirus released to the supernatant was determined as an RNA titer. In the graphs, the two bars on the right side correspond to (Reinf+2f-fuc and Reinf+6a-fuc) or (Reinf−2f-fuc and Reinf−6a-fuc).
On the technique in general: In qPCR the cycle at which signal appears reflects the starting amount.

As for `CC(=O)OC1O[C@@H](C)[C@@H](OC(C)=O)[C@@H](OC(C)=O)[C@@H]1F` (stereo partly drawn) [2fp-fucose, (3S,4R,5R,6S)-3-fluoro-6-methyltetrahydro-2H-pyran-2,4,5-triyl triacetate], the “concentration of complete viral proliferation inhibition” value in assay [1] was not below 200 µM. Also, in assay [2], the “rise in RNA titer (proliferation of human norovirus) in the addition group” value is reported as “no rise in RNA titer” and the “rise in RNA titer of the untreated group with respect to the administration system” value was not below 10 fold.

For the origin of these results see patent US20240390404A1, “ANTI-HUMAN NOROVIRUS AGENT” (KEIO UNIVERSITY, priority 2018, published 2024).
